Source: ChEMBL document CHEMBL3507680, “University of Dundee, Gates Library screen for HepG2 cell viability”

Experiment: Human HepG2 cell viability assay in 384 well format
Assay type: toxicity, cell-based
Set-up: dose 125 nL, time 70.5 hour; concentration not given beside the values
Details: HepG2 cells, read-out: Inhibition

Compound	cytotoxicity at 70.5 h
CCCN1CC2(CCN(c3cc(C4CC4)ncn3)CC2)CC1C(=O)O (stereo not given)	-4.45%
CCn1ccnc1CN(C)Cc1nc(Cc2ccccc2F)no1	7.48%
Cc1ncc(C(=O)N2CCC(N3C[C@@H](C)O[C@@H](C)C3)CC2)c(=O)[nH]1	8.83%
CC[C@@]1(O)CCN(C(=O)c2ccoc2)C[C@H]1O	-7.14%
Cn1ccnc1-c1nccn1C[C@@H]1CCCN2CCCC[C@H]12	2.02%
CN1CCC(N(CCc2ccccc2)C(=O)COCC2CCCO2)CC1 (stereo not given)	-0.746%
CN(C)CCNC(=O)c1ccc(OC2CCN(C(=O)CO)CC2)c(Cl)c1	-7.98%
O=C1NC(c2cccnc2)=NC12CCN(CCCc1ccccc1)CC2	-8.89%
COCCOCC(=O)N1CCC2(CCCN(C3CCOCC3)C2=O)C1 (stereo not given)	11.4%
Cn1ncc(N2CCC(CNC(=O)[C@@H](N)C3CCCCC3)CC2)cc1=O	3.03%
CCNc1ncc(CN2C[C@H]3CC[C@@H]2CN(C(=O)C2CCC2)C3)cn1	-7.7%
COc1cc2c(cc1C(=O)N1CC(c3ccncc3)C1)CCC2	-5.23%
Cc1cnn(CCNc2ncnc3c2CCN(CC2CCOC2)CC3)c1 (stereo not given)	-2.24%
CCCN1CCCC2(CCN(Cc3noc(C4CCCC4)n3)C2)C1=O (stereo not given)	3.33%
Cc1cc(C)nc(CN2CCOC(c3ccc(Cl)cc3)C2)n1 (stereo not given)	-1.88%
O=C(NCc1cnn2ccccc12)NC1CCCC1	-15.5%
COc1cncc(-n2nc(C)c(CC(C)=O)c2C)c1	0.266%
Cc1ccn2c(F)c(C(=O)N3CCC4(CCC(=O)N(C)C4)CC3)nc2c1	-10.1%
CCc1cc(C(=O)N2CC[C@@H](c3ccc4ccccc4c3)[C@H](O)C2)[nH]n1	35%
CCc1cnc(C)nc1NC(CC)c1ncnn1CC (stereo not given)	-5.6%
COc1ccc(C(=O)N2CCCCC2c2ccccn2)c(OC)n1 (stereo not given)	15.4%
O=C(NCCc1cccnc1)c1cn(CCN2CCNCC2)nn1	-5.26%
CCc1cnc(C)nc1NCCN1CCC(O)CC1	9.55%
CCC(C(=O)NC(C)(C)C)n1cccc(OC)c1=O (stereo not given)	-10.3%
CCn1cnc(NC(=O)N2CCC(c3ccc(F)cc3)C2)n1 (stereo not given)	-8.46%
CCn1cc(CNc2ccc3nccnc3c2)cn1	7.17%
Cn1ccnc1SCCNC1CCN(c2ncccn2)CC1	-1.29%
CCCOCC1CCN(C(=O)Cn2cccc(OC)c2=O)C1 (stereo not given)	-9.9%

Compound	cytotoxicity at 70.5 h
COc1ccc(F)c(CN2CC(=O)N(c3ccccc3C)CC2C)c1 (stereo not given)	-7.03%
Cc1oc(-c2ccc(F)cc2F)nc1CN1C[C@@H](C)O[C@@H](C)C1	15.1%
Cc1nn(C2CCCCC2)c2nc(C(C)(C)CN3CCOCC3)[nH]c12	-6.99%
CSCCC(O)C(=O)N(C)Cc1cnn(-c2ccc(F)cc2)c1 (stereo not given)	-3.28%
CCN1CCC(CC(=O)N2CCN(c3ccccc3OC)CC2C)CC1 (stereo not given)	23.7%
Cc1c(Cn2c(=O)cnc3ccccc32)cnn1C	-14.9%
Cc1cnc(Cn2cc(-c3cccc(C(C)N(C)C)c3)nn2)cn1 (stereo not given)	-4.71%
COc1cccc(OCC2CCCN(C(=O)Cc3cccc(O)c3)C2)c1 (stereo not given)	-11.3%
O=C(NCCC1COc2ccccc2O1)c1ccc(N2CC(O)C2)nc1 (stereo not given)	-6.19%
O=C(c1cnc2ccccn12)N1CCCC(c2ccn[nH]2)C1 (stereo not given)	-11.2%
CC(c1ccccn1)N(C)Cc1cccc(C(=O)Nc2nccn2C)c1 (stereo not given)	8.36%
CN(Cc1ncc[nH]1)c1nc(-c2ccccn2)nc2c1CCNCC2	-11.9%
Cc1ccsc1[C@@H]1CCN(C(=O)CCOc2ccccc2)C[C@H]1O	-8.93%
NCCn1cc(C(=O)N2CCCCCC2c2cccc(F)c2)nn1 (stereo not given)	13.5%
CCn1c(C)nnc1SCCNc1cc(OC)ncn1	-18.6%
Cc1cccnc1CN1CCN(C(=O)c2cc(Cl)c[nH]c2=O)CC1	8.42%
Cc1ccc(F)c(OC2(C(=O)O)CCN(C(=O)c3ccccc3)CC2)c1	-6.1%
Cc1ccc(-c2cc(C(=O)N(C)Cc3noc4c3CCCC4)[nH]n2)s1	21.6%
COc1cc(-c2cccc3c2OC(CN)C3)cc(OC)c1OC (stereo not given)	-1.4%
O=C(N[C@H]1CN(c2ccncc2)C[C@@H]1C1CC1)C1CCOCC1	-3.12%
CSc1ncc(C(=O)NCc2cc3n(n2)CCCN(CC(C)C)C3)cn1	5.43%
O=C1OCCN1CC(=O)N1C[C@H]2CC[C@@H]1CN(C(=O)c1ccccc1)C2	2.12%
CS(=O)(=O)c1ccc(CN2CCCCC2c2ccc(F)cc2)cc1 (stereo not given)	17.4%
COc1ccc(C)cc1-n1cnnc1C1CC(=O)N(C)C1 (stereo not given)	-4.76%
CC(Cc1cncs1)Nc1ncnc2cccc(F)c12 (stereo not given)	1.5%
Cn1cnnc1CN1CCC2(CCC(=O)N(Cc3ccccc3)C2)CC1	-4.83%
Cc1cnc(NCc2csc(C(C)C)n2)nc1-c1cnn(C)c1	-14.9%
